Assay results from article PMC9043592, “New triterpenes from Cimicifuga yunnanensis down-regulating the mRNA expression of CD147, MMP-2, and MMP-9” (RSC Advances, 2021).

Legend:
[1] = test system: CD147 and MMPs mRNA expression; set-up: method as in PMID 35541353, doi:10.1016/j.phytol.2021.01.009; settings: previously identified CTs from C. foetida; cited from earlier work
[2] = test system: CD147 (extracellular matrix metalloproteinase inducer, EMMPRIN) mRNA expression; assay: q-PCR, mRNA expression of CD147 in PMA-induced THP-1 cells; type: cell-based, Human; settings: 24 h; for CD147 mRNA inhibitory effect compared with YG (positive control) / suppression of the mRNA expression of CD147 (in words): 10 μM; for IC50: Homo sapiens, q-PCR 2^-ΔΔCt, 1-50 μM, read-out: IC50, suppression of mRNA expression of CD147
Procedure: (§1) Human monocytic THP-1 cells were cultured at 37 °C by DMEM/F12 medium supplemented with 10% fetal bovine serum and 1% penicillin/streptomycin in a humidified atmosphere of 5% CO2. Cells (5 × 10^5 to 10^6 per mL) were subjected to differentiation by 100 nM PMA for 24 h with DMEM/F12 serum medium. After incubation, the adherent cells were washed with DMEM/F12. Nonattached cells were removed by aspiration.
RevertAid™ First Strand cDNA Synthesis Kit was applied to extract total RNA of differentiated THP-1 cells treated with compounds 3–5, 9 and 11 (10 μM), along with 7 and 8 (1, 3, 10, 25, and 50 μM) for 24 h (5 × 10^5 cells per mL) following the manufacturer's instructions. cDNA was synthesized from the isolated total RNA based on the instruction of the PrimeScript RT reagent Kit. Briefly, PrimeScript RT Enzyme Mix 1 (0.5 μL), 5 × PrimeScriptTM Buffer (2 μL), oligo dt Primer (0.5 μL) and Random 6 mers (0.5 μL) were gently mixed with 1 μg RNA from each sample to a reaction volume of 10 μL with RNase free water, then incubated for 15 minutes at 37 °C to activate the reverse transcriptase enzyme. Finally, the reaction was stopped by 85 °C for 5 seconds.
After reverse transcription, cDNA was used to carry out real-time quantitative RT-PCR on ProFlex™ PCR system by SYBR Premix Ex Taq (Takara). The final volume of TR-PCR reaction is 25 μL, containing 12.5 μL SYBR green master mix, 1 μL cDNA, 0.5 μL each forward and reverse primer, and 10.5 μL nuclease-free water. For information of primers see Table S1. ^† Thermal cycling conditions for all genes were as follows: template pre-denaturation (10 min at 95 °C), denaturation (15 seconds at 95 °C), annealing and extension (30 seconds at 60 °C) for 40 cycles. Internal reference is GAPDH mRNA, and fold changes of mRNA expression for each target relative to GAPDH were calculated by the 2^−ΔΔCt method. Expression of mRNA is determined as the change in mRNA copy numbers relative to negative control cells (undifferentiated THP-1 cells). All the experiments were carried out in triplicate.

MMP-9 mRNA expression = assay: q-PCR, mRNA expression of MMP-9 in PMA-induced THP-1 cells; type: cell-based, Human; settings: 24 h
Procedure: as §1
(§2) RevertAid™ First Strand cDNA Synthesis Kit was applied to extract total RNA of differentiated THP-1 cells treated with compounds 3–5, 9 and 11 (10 μM), along with 7 and 8 (1, 3, 10, 25, and 50 μM) for 24 h (5 × 10^5 cells per mL) following the manufacturer's instructions. cDNA was synthesized from the isolated total RNA based on the instruction of the PrimeScript RT reagent Kit. […]
(§3) After reverse transcription, cDNA was used to carry out real-time quantitative RT-PCR on ProFlex™ PCR system by SYBR Premix Ex Taq (Takara). […] Internal reference is GAPDH mRNA, and fold changes of mRNA expression for each target relative to GAPDH were calculated by the 2^−ΔΔCt method. Expression of mRNA is determined as the change in mRNA copy numbers relative to negative control cells (undifferentiated THP-1 cells). […]

MMP-2 mRNA expression = assay: q-PCR, mRNA expression of MMP-2 in PMA-induced THP-1 cells; type: cell-based, Human; settings: 24 h
Procedure: as §1, §2, §3

[3] = test system: migration of PMA-induced THP-1 cells; assay: Wound-healing (scratch wound) migration assay; type: cell-based; settings: Homo sapiens, 24 h incubation, read-out: IC50, decrease of number of migrated cells
Procedure: as §1
The differentiated THP-1 cells were seeded and grown into full confluence in 6 well plates. 2% FBS DMEM/F12 media was used to inactivated cell proliferation for 12 h, then wounded with pipette tips. Fresh DMEM/F12 medium with or without 1, 3, 10, 25, and 50 μM of 7 was added to the scratched monolayers. Images were took after 24 hours using a Nickon inverted microscope (magnification, 10×). The migration cell number of PMA-induced THP-1 cell group was defined as control. All the experiments were performed in triplicate.

Row | Compound | inhibitions on CD147 and MMPs mRNA expression (in words) [1] | CD147 mRNA inhibitory effect compared with YG (positive control) [2] | suppression of the mRNA expression of CD147 (in words) [2] | IC50 [2] [µM] | decrease of MMP-9 mRNA expression (MMP-9 mRNA expression; 10 μM, P < 0.01) [%] | decrease of MMP-2 mRNA expression (MMP-2 mRNA expression; 10 μM, P < 0.01) [%] | IC50 [3] [µM] | IC50 (MMP-9 mRNA expression; Homo sapiens, q-PCR, 1-50 μM, read-out: IC50, down-regulation of mRNA expression of MMP-9) [µM] | IC50 (MMP-2 mRNA expression; Homo sapiens, q-PCR, 1-50 μM, read-out: IC50, down-regulation of mRNA expression of MMP-2) [µM]
1 | 12β-hydroxycimiacerol [HC] | notable inhibitions |  |  |  |  |  |  |  | 
2 | CC1C(O)C2(OC3CC4(C)C5CCC6C(C)(C)C(O)CCC67CC57CCC4(C)C31)OC2C(C)(C)O (stereo not shown) [Compound 8, Actaeaepol] |  | same level of activity as YG | noticeably suppressed | 8.25 ± 0.33 | 25 | 35 |  |  | 
3 | yunnanterpene G [YG] | notable inhibitions |  |  |  |  |  |  |  | 
4 | CC1CC(C(O)C(C)(C)O)OC2(O)C(=O)C3(C)C4=CCC5C(C)(C)C(=O)CCC56CC46CC(O)C3(C)C12 [Compound 7, (23R,24S)-12β-Hydroxy-7(8)-en-3,15-dione-hydroxyshengmanol] |  | more potent than YG | noticeably suppressed | 3.38 ± 0.27 |  |  | 5.87 ± 0.27 | 11.6 ± 0.23 | 6.32 ± 0.31
